# Source: ChEMBL document CHEMBL1201861, “Genomics of Drug Sensitity in Cancer screening data, Wellcome Trust Sanger Institute”
# Columns and labels:
# Experiment in all cases: cells
# Details in all cases: Homo sapiens
# MMAC-SF = assay type: functional, cell-based;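 note: growth inhibition of human MMAC-SF cells, read out with a cell viability assay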
# NCI-H292 = assay type: functional, cell-based;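 note: growth inhibition of NCI-H292 cells, read out with a cell viability assay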
# MSTO-211H = assay type: functional, cell-based
# RPMI-8866 = assay type: functional, cell-based
# NCI-H1395 = assay type: functional, cell-based;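 note: cell viability assay read-out quantifying reduced proliferation of human NCI-H1395 cells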
# IST-MEL1 = assay type: functional, cell-based;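 note: growth inhibition of the cell line, read out with a cell viability assay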
# MZ7-mel = assay type: functional, cell-based;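 note: growth inhibition of human MZ7-mel cells, measured by a cell viability assay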
# NEC8 = assay type: functional, cell-based;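 note: growth inhibition of human NEC8 cells, read out by a cell viability assay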
# NB5 = assay type: functional, cell-based;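 note: growth inhibition of NB5 cells, read out as cell viability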
# SNB-75 = assay type: functional, cell-based;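 note: cell viability assay measuring growth inhibition of human SNB-75 cells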
# Becker = assay type: functional, cell-based;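 note: growth inhibition of Becker cells, read out with a cell viability assay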
# RS4-11 = assay type: functional, cell-based;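 note: growth inhibition of RS4-11 cells, read out by a cell viability assay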
# TGBC24TKB = assay type: functional, cell-based;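 note: growth inhibition of human TGBC24TKB cells, read out with a cell viability assay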
# SiHa = assay type: functional, cell-based;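 note: Viability-based readout of growth inhibition in SiHa cells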
# NKM-1 = assay type: functional, cell-based;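 note: growth inhibition of NKM-1 cells, read out with a cell viability assay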
# C2BBe1 = assay type: functional, cell-based;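 note: growth inhibition of C2BBe1 cells, read out through a viability assay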
# KURAMOCHI = assay type: functional, cell-based;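 note: growth inhibition of KURAMOCHI cells, read out with a cell viability assay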
# EW-24 = assay type: functional, cell-based;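 note: human EW-24 cancer cell line, growth inhibition read out via a cell viability assay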
# NCI-H720 = assay type: functional, cell-based;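 note: growth inhibition of human NCI-H720 cells determined by a cell viability assay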
# LXF-289 cell line = assay type: functional, cell-based
# SK-N-FI = assay type: functional, cell-based;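 note: cell viability assay measuring growth inhibition of human SK-N-FI cells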
# KE-37 = assay type: functional, cell-based;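 note: growth inhibition of KE-37 cells, read out with a cell viability assay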
# D-263MG = assay type: functional, cell-based
# RH-1 = assay type: functional, cell-based;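 note: growth inhibition of human RH-1 cells, read out with a cell viability assay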
# KM-H2 = assay type: functional, cell-based;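 note: growth inhibition of KM-H2 cells, read out by a cell viability assay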
# L-540 = assay type: functional, cell-based;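 note: growth inhibition of the human L-540 cell line, read out with a viability assay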
# KNS-81-FD = assay type: functional, cell-based;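 note: growth inhibition of KNS-81-FD cells, read out with a cell viability assay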
# BE-13 = assay type: functional, cell-based;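 note: growth inhibition of human BE-13 cells, measured with a cell viability assay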
# DU-4475 = assay type: functional, cell-based
# AM-38 = assay type: functional, cell-based;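 note: growth inhibition of AM-38 cells of human origin, read out by a cell viability assay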
# HCC1599 = assay type: functional, cell-based;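 note: growth inhibition of HCC1599 cells, read out in a cell viability assay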
# COLO-684 = assay type: functional, cell-based
# SCC-15 = assay type: functional, cell-based;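 note: growth inhibition of SCC-15 cells, read out with a cell viability assay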
# SF-268 = assay type: functional, cell-based;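 note: growth inhibition of SF-268 cells determined with a cell viability assay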
# MS-1 = assay type: functional, cell-based;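 note: growth inhibition of MS-1 cells, read out by cell viability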
# PFSK-1 = assay type: functional, cell-based;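 note: cell viability assay measuring how strongly compounds suppress growth of human PFSK-1 cells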
# SW 962 = assay type: functional, cell-based;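 note: growth inhibition of human SW962 cells, read out by a cell viability assay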
# ATN-1 = assay type: functional, cell-based;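 note: growth inhibition of human ATN-1 cells, read out with a cell viability assay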
# HO-1-N-1 = assay type: functional, cell-based;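 note: growth inhibition of human HO-1-N-1 cells, read out with a cell viability assay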
# NCI-H1650 = assay type: functional, cell-based;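 note: growth inhibition of human NCI-H1650 cells measured by a cell viability assay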
# SW780 = assay type: functional, cell-based;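 note: growth inhibition of the cells, read out with a cell viability assay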
# MEG-01 = assay type: functional, cell-based;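 note: growth inhibition of MEG-01 cells, read out by a cell viability assay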
# IST-MES1 = assay type: functional, cell-based;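 note: growth inhibition of IST-MES1 cells, measured with a cell viability assay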
# MV4-11 = assay type: functional, cell-based, MV-4-11;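 note: cell viability readout measuring growth inhibition of human MV-4-11 cells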
# CAL-33 = assay type: functional, cell-based;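 note: growth inhibition of CAL-33 cells, read out with a cell viability assay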
# DB = assay type: functional, cell-based
# LB373-MEL-D = assay type: functional, cell-based;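 note: growth inhibition of the cell line, read out in a cell viability assay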
# GCIY = assay type: functional, cell-based;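 note: growth inhibition of the human GCIY cell line, read out by a cell viability assay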
# VA-ES-BJ = assay type: functional, cell-based;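 note: growth inhibition of the VA-ES-BJ cell line, read out by a cell viability assay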
# GI-ME-N = assay type: functional, cell-based;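 note: growth inhibition of human GI-ME-N cells, read out with a cell viability assay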
# SCC-9 = assay type: functional, cell-based;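 note: Read-out is a cell viability assay, with values giving inhibition of cell growth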
# Lu-65 = assay type: functional, cell-based;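 note: growth inhibition of Lu-65 cancer cells, read out by a cell viability assay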
# BT-474 = assay type: functional, cell-based
# CP66-MEL = assay type: functional, cell-based;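 note: growth inhibition of CP66-MEL cells determined in a cell viability assay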
# Mo = assay type: functional, cell-based
# NCI-H358 = assay type: functional, cell-based;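 note: growth inhibition of NCI-H358 human cells, read out with a cell viability assay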
# G-401 = assay type: functional, cell-based
# NB6 = assay type: functional, cell-based;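 note: growth inhibition of NB6 cells, read out by a cell viability assay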
# ES6 = assay type: functional, cell-based;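 note: growth inhibition of human ES6 cells, read out with a cell viability assay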
# CTV-1 = assay type: functional, cell-based
# SF-126 = assay type: functional, cell-based
# HCC 2998 = assay type: functional, cell-based
# HC-1 = assay type: functional, cell-based
# TE-12 = assay type: functional, cell-based
# HuTu80 = assay type: functional, cell-based, HUTU-80
# NCI-H526 = assay type: functional, cell-based
smiles,measurement,setting,value
CC(O)(CS(=O)(=O)c1ccc(F)cc1)C(=O)Nc1ccc(C#N)c(C(F)(F)F)c1 (configuration not stated) [BICALUTAMIDE],IC50,MMAC-SF,> 1020 nM
same,IC50,NCI-H292,> 1020 nM
same,IC50,MSTO-211H,> 1020 nM
same,IC50,RPMI-8866,> 1020 nM
same,IC50,NCI-H1395,> 1020 nM
same,IC50,IST-MEL1,> 1020 nM
same,IC50,MZ7-mel,> 1020 nM
same,IC50,NEC8,> 1020 nM
same,IC50,NB5,> 1020 nM
same,IC50,SNB-75,> 1020 nM
same,IC50,Becker,> 1020 nM
same,IC50,RS4-11,> 1020 nM
same,IC50,TGBC24TKB,> 1020 nM
same,IC50,SiHa,> 1020 nM
same,IC50,NKM-1,> 1020 nM
same,IC50,C2BBe1,> 1020 nM
same,IC50,KURAMOCHI,> 1020 nM
same,IC50,EW-24,> 1020 nM
same,IC50,NCI-H720,> 1020 nM
same,IC50,LXF-289 cell line,> 1020 nM
same,IC50,SK-N-FI,> 1020 nM
same,IC50,KE-37,> 1020 nM
same,IC50,D-263MG,> 1020 nM
same,IC50,RH-1,> 1020 nM
same,IC50,KM-H2,> 1020 nM
same,IC50,L-540,> 1020 nM
same,IC50,KNS-81-FD,> 1020 nM
same,IC50,BE-13,> 1020 nM
same,IC50,DU-4475,> 1020 nM
same,IC50,AM-38,> 1020 nM
same,IC50,HCC1599,> 1020 nM
same,IC50,COLO-684,> 1020 nM
same,IC50,SCC-15,> 1020 nM
same,IC50,SF-268,> 1020 nM
same,IC50,MS-1,> 1020 nM
same,IC50,PFSK-1,> 1020 nM
same,IC50,SW 962,> 1020 nM
same,IC50,ATN-1,> 1020 nM
same,IC50,HO-1-N-1,> 1020 nM
same,IC50,NCI-H1650,> 1020 nM
same,IC50,SW780,> 1020 nM
same,IC50,MEG-01,> 1020 nM
same,IC50,IST-MES1,> 1020 nM
same,IC50,MV4-11,> 1020 nM
same,IC50,CAL-33,> 1020 nM
same,IC50,DB,> 1020 nM
same,IC50,LB373-MEL-D,> 1020 nM
same,IC50,GCIY,> 1020 nM
same,IC50,VA-ES-BJ,> 1020 nM
same,IC50,GI-ME-N,> 1020 nM
same,IC50,SCC-9,> 1020 nM
same,IC50,Lu-65,> 1020 nM
same,IC50,BT-474,> 1020 nM
same,IC50,CP66-MEL,> 1020 nM
same,IC50,Mo,> 1020 nM
same,IC50,NCI-H358,> 1020 nM
same,IC50,G-401,> 1020 nM
same,IC50,NB6,> 1020 nM
same,IC50,ES6,> 1020 nM
same,IC50,CTV-1,> 1020 nM
same,IC50,SF-126,> 1020 nM
same,IC50,HCC 2998,> 1020 nM
same,IC50,HC-1,> 1020 nM
same,IC50,TE-12,> 1020 nM
same,IC50,HuTu80,> 1020 nM
same,IC50,NCI-H526,> 1020 nM
CCNC(=O)c1noc(-c2cc(C(C)C)c(O)cc2O)c1-c1ccc(CN2CCOCC2)cc1 [LUMINESPIB],IC50,MMAC-SF,43 nM
same,IC50,NCI-H292,17.1 nM
same,IC50,MSTO-211H,> 256 nM
same,IC50,RPMI-8866,> 256 nM
same,IC50,NCI-H1395,> 256 nM
same,IC50,IST-MEL1,8.52 nM
same,IC50,MZ7-mel,43.3 nM
same,IC50,NEC8,> 256 nM
same,IC50,NB5,36.1 nM
same,IC50,SNB-75,24.7 nM
same,IC50,Becker,15.1 nM
same,IC50,RS4-11,33.8 nM
same,IC50,TGBC24TKB,> 256 nM
same,IC50,SiHa,> 256 nM
same,IC50,NKM-1,5.47 nM
same,IC50,C2BBe1,199 nM
same,IC50,KURAMOCHI,61.9 nM
same,IC50,EW-24,> 256 nM
same,IC50,NCI-H720,> 256 nM
same,IC50,LXF-289 cell line,26.7 nM
same,IC50,SK-N-FI,> 256 nM
same,IC50,KE-37,56.8 nM
same,IC50,D-263MG,56.8 nM
same,IC50,RH-1,62.3 nM
same,IC50,KM-H2,72.4 nM
same,IC50,L-540,> 256 nM
same,IC50,KNS-81-FD,69.2 nM
same,IC50,BE-13,> 256 nM
same,IC50,DU-4475,21.5 nM
same,IC50,AM-38,13 nM
same,IC50,HCC1599,96 nM
same,IC50,COLO-684,81.6 nM
same,IC50,SCC-15,28 nM
same,IC50,SF-268,34 nM
same,IC50,MS-1,186 nM
same,IC50,PFSK-1,103 nM
same,IC50,SW 962,28.5 nM
same,IC50,ATN-1,> 256 nM
same,IC50,HO-1-N-1,25.5 nM
same,IC50,NCI-H1650,16.5 nM
same,IC50,SW780,> 256 nM
same,IC50,MEG-01,173 nM
same,IC50,IST-MES1,> 256 nM
same,IC50,MV4-11,0.558 nM
same,IC50,CAL-33,43.8 nM
same,IC50,DB,229 nM
same,IC50,LB373-MEL-D,> 256 nM
same,IC50,GCIY,20.6 nM
same,IC50,VA-ES-BJ,42.9 nM
same,IC50,GI-ME-N,74.3 nM
same,IC50,SCC-9,58.7 nM
same,IC50,Lu-65,202 nM
same,IC50,BT-474,70.6 nM
same,IC50,CP66-MEL,78.9 nM
same,IC50,Mo,> 256 nM
same,IC50,NCI-H358,42.1 nM
same,IC50,G-401,10.3 nM
same,IC50,NB6,> 256 nM
same,IC50,ES6,12.6 nM
same,IC50,CTV-1,41.2 nM
same,IC50,SF-126,50.1 nM
same,IC50,HCC 2998,29.4 nM
same,IC50,HC-1,40.7 nM
same,IC50,TE-12,17.8 nM
same,IC50,HuTu80,20 nM
same,IC50,NCI-H526,187 nM
